Assay results published in the NIST ThermoML archive (doi:10.1021/je200854k).

Conditions: Liquid, Capillary tube (Ostwald / Ubbelohde) method

FCC(F)(F)F [1,1,1,2-tetrafluoroethane]
viscosity [mPa·s]
Conditions	1000 kPa	2000 kPa	5000 kPa	10000 kPa	15000 kPa	20000 kPa	25000 kPa	30000 kPa	35000 kPa	40000 kPa
258.15 K	0.3251	–	0.3468	0.3675	0.3885	0.4094	0.4309	0.4502	0.4712	0.4996
278.14 K	0.2536	–	0.2678	0.2859	0.3033	0.3209	0.3381	0.3543	0.3712	0.3885
298.14 K	0.1962	–	0.2108	0.2273	0.2421	0.2567	0.2716	0.2876	0.3017	0.3169
318.13 K	–	0.1549	0.1656	0.1828	0.197	0.2111	0.2254	0.2393	0.2511	0.2647
338.13 K	–	0.1152	0.1288	0.1466	0.1618	0.1754	0.1893	0.2007	–	–

FC(F)(F)CC(F)(F)F [1,1,1,3,3,3-hexafluoropropane]
viscosity [mPa·s]
Conditions	1000 kPa	2000 kPa	5000 kPa	10000 kPa	15000 kPa	20000 kPa	25000 kPa	30000 kPa	35000 kPa	40000 kPa
253.15 K	0.5347	–	0.5621	0.5982	0.6363	0.671	0.7092	0.751	0.7898	0.8347
263.16 K	0.4612	–	0.4857	0.5184	0.5511	0.583	0.6154	0.6508	0.6835	0.7189
273.14 K	0.3999	–	0.4237	0.452	0.4821	0.5127	0.5412	0.5699	0.6012	0.6317
283.14 K	0.35	–	0.3722	0.3989	0.4259	0.4534	0.4798	0.5054	0.5325	0.5603
293.14 K	0.3074	–	0.3281	0.3534	0.3789	0.4034	0.4271	0.452	0.4757	0.5014
303.14 K	0.2708	–	0.2906	0.3141	0.3383	0.362	0.3838	0.4053	0.429	0.4513
313.14 K	0.2385	–	0.2585	0.2817	0.3041	0.3268	0.3467	0.3678	0.3897	0.41
323.13 K	0.21	–	0.2306	0.253	0.2742	0.295	0.3155	0.3353	0.3544	0.3744
333.13 K	0.1844	–	0.2046	0.2274	0.2481	0.2683	0.2868	0.3059	0.3248	0.3434
343.13 K	–	0.1669	0.1825	0.2044	0.2255	0.2447	0.2631	0.2805	0.2994	0.3154
353.13 K	–	0.1456	0.1618	0.1858	0.2064	0.2239	0.2427	0.2591	0.2761	0.2925
363.14 K	–	0.1248	0.1432	0.1663	0.1863	0.2051	0.2226	0.2395	0.2555	0.2713
373.14 K	–	0.1074	0.1287	0.1531	0.1718	0.1886	0.2056	0.2222	0.2366	0.2495

FC(F)CC(F)(F)F [1,1,1,3,3-pentafluoropropane]
viscosity [mPa·s]
Conditions	1000 kPa	2000 kPa	5000 kPa	10000 kPa	15000 kPa	20000 kPa	25000 kPa	30000 kPa	35000 kPa	40000 kPa
263.15 K	0.679	–	0.7113	0.7526	0.7951	0.8369	0.8778	0.9236	0.9686	1.015
273.14 K	0.5811	–	0.6083	0.6456	0.6801	0.717	0.7534	0.7902	0.8293	0.8685
283.14 K	0.4999	–	0.5252	0.5564	0.5887	0.6204	0.6519	0.6847	0.7184	0.7497
293.14 K	0.4344	–	0.4571	0.4859	0.5143	0.5433	0.5704	0.5998	0.6291	0.6589
303.14 K	0.3799	–	0.4011	0.4282	0.4534	0.4796	0.5048	0.5306	0.5573	0.5829
313.14 K	0.3343	–	0.3538	0.379	0.4035	0.427	0.4502	0.4745	0.4975	0.5211
323.13 K	0.2952	–	0.3139	0.3372	0.3595	0.3816	0.4029	0.425	0.4464	0.4694
333.13 K	0.2601	–	0.2788	0.3009	0.3232	0.3433	0.3637	0.3837	0.4048	0.4241
343.13 K	0.2301	–	0.2484	0.2698	0.29	0.31	0.3304	0.3488	0.3686	0.3872
353.13 K	0.2053	–	0.2226	0.2428	0.2627	0.2819	0.2999	0.3186	0.3361	0.3537
363.14 K	–	0.1838	0.1972	0.219	0.2389	0.2561	0.2746	0.2918	0.3084	0.325
373.14 K	–	0.1612	0.1758	0.1977	0.2165	0.2346	0.2518	0.2679	0.2839	–

Cc1ccccc1 [toluene]
viscosity [mPa·s]
Conditions	248.16 K	273.15 K	298.14 K	323.13 K	348.13 K
1000 kPa	1.19	0.7764	0.5581	0.4252	0.3356
10000 kPa	1.285	0.8352	0.6005	0.4563	0.3616
20000 kPa	1.397	0.9052	0.644	0.4908	0.3907
30000 kPa	1.521	0.9742	0.6909	0.5267	0.4198
40000 kPa	–	1.045	0.7419	0.5662	0.4497
